The term T/C denotes the ratio of treated to control.

Where two headings read alike, the source gives them in different places.

How the values of series [1] were obtained: (§1) 0.2 mL of H460 tumor cell suspension (1×10^7 cells) is injected subcutaneously in the right flank of 9-week old female nu/nu (nude) mice (Harlan Laboratories, Indianapolis, Ind.) having a body weight (BW) range of 18.1-26.9 g on Day 1 of the study. Tumors are monitored twice weekly and then daily as their mean volume approaches 100-150 mm^3. Ten days after implantation, the mice are sorted into 11 groups of eight mice having individual tumor sizes of 75-196 mm^3 and a group mean tumor size of 119-122 mm^3. Tumor volume in mm^3 is determined using the formula [(width)^2×(length)]/2, where width width of the tumor in mm and length length of the tumor in mm. Tumor weight can be estimated with the assumption that 1 mg is equivalent to 1 mm^3 of tumor volume.
(§2) The 11 groups of nude mice are treated as follows. One group of eight mice serves as Controls (C or Control) for all analyses and is administered intraperitoneally (i.p.) 50 mM sodium acetate at pH 4 (Vehicle 1) and then administered by oral gavage (p.o.) a composition comprising 10% N-methylpyrrolidone 90% polyethylene glycol 300 (PEG300) (Vehicle 2). […] Metformin is dissolved in 50 mM sodium acetate at pH 4 for dosing.
(§3) Compound A is stored at −20° C. Compound C is stored at −20° C. protected from light. Stock solutions (10×) in 100% N-rnethylpyrrolidone (NMP) are prepared every five days, aliquotted, and stored in the dark at room temperature. On each treatment day, stock solution aliquots are diluted with polyethylene glycol (PEG300) to provide the formulated drug (Compound A or Compound C) in 10% NMP: 90% PEG300. Dosing solutions are protected from light, and the formulated drug is administered within 1 hour after preparation.
(§4) For combination therapies, Compound A or Compound C are administered by oral gavage (p.o.) within 30 minutes after the intraperitoneal (i.p.) administration of metformin, except on Day 20 when Compound A or Compound C is given immediately after metformin.
(§5) Paclitaxel (Natural Pharmaceuticals, Inc., Beverly, Mass., USA) is administered by bolus tail-vein injections (i.v.) once daily on alternate days for five doses. Paclitaxel is dissolved in 50% ethanol and 50% Crernophor® EL to prepare a 10× stock solution stored at room temperature. On each day of dosing, an aliquot of the paclitaxel stock solution is diluted with 5% dextrose in water to yield a dosing solution containing 5% ethanol and 5% Cremophor® EL.
(§6) In all groups, the dosing volume of 10 mL/kg (0.2 mL/20 g mouse) is scaled to the weight of each animal as determined on the day of dosing, except on weekends when the previous BW is carried fontvard.

The procedure of series [2]:
0.2 mL of A549 cell suspension (1×10^7 cells) is injected subcutaneously in the right flank of 9-week old female flu/flu (nude) mice (Harlan Laboratories, Indianapolis, Ind.) having a body weight (BW) range of 19.9-27.3 g on Day 1 of the study, Tumors are callipered in two dimensions to monitor their growth as their mean volume approached 150-220 mm^3, Twenty-two days after implantation, the mice are sorted into 11 groups of eight or nine mice having individual tumor sizes of 108-221 mm^3. Tumor volume in mm^3 is determined using the formula [(width)^2×(length)][…], where width width of the tumor in mm and length=length of the tumor in mm. Tumor weight can be estimated with the assumption that 1 mg is equivalent to 1 mm^3 of tumor volume.
The 11 groups of nude mice are treated as follows. One group of nine mice serves as Controls (C or Control) for all analyses and is administered intraperitoneally (i,p,) 50 mM sodium acetate at pH 4 (Vehicle 1) and then administered by oral gavage (p.o.) a composition comprising 10% N-methylpyrrolidone: 90% polyethylene glycol 300 (PEG300) (Vehicle 2). […] Metformin is dissolved in 50 mM sodium acetate at pH 4 for dosing,
Compound A and Compound C are stored at −20° C. protected from light. Stock solutions (10X) in 100% N-methylpyrrolidone (NMP) are prepared every five days, aliquotted, and stored in the dark at room temperature. On each treatment day, stock solution aliquots are diluted with polyethylene glycol (PEG300) to provide the formulated drug (Compound A or Compound C) in 10% NMP: 90% PEG300. Dosing solutions are protected from light, and the formulated drug is administered within 1 hour after preparation.
For combination therapies, Compound A or Compound C are administered by oral gavage (p.o.) within 30 minutes after the intraperitoneal (i.p.) administration of metformin , except on Day 20 when Compound A or Compound C is given immediately after metformin.
Paclitaxel (Natural Pharmaceuticals, Inc., Beverly, Mass., USA) is administered by bolus tail-vein injections (i v) once daily on alternate days for five doses. Paclitaxel is dissolved in 50% ethanol and 50% Cremophor® EL to prepare a 10X stock solution stored at room temperature. On each day of dosing, an aliquot of the paclitaxel stock solution is diluted with 5% dextrose in water to yield a dosing solution containing 5% ethanol and 5% Cremophor®EL.
In all groups, the dosing volume of 10 mL/kg (0.2 mL/ 20 g mouse) is scaled to the weight of each animal as determined on the day of dosing, except on weekends when the previous BW is carried forward.
This is another data set of the same source.

Series [3] has as its system H460 non-small cell lung tumors. Nature of the series: H460 xenograft 12-day tumor growth inhibition assay. It is filed as in vivo, nude mice. Conditions: for Mean Tumor Vol. Change / Regression / T/C: Day 12. The procedure: H460 human non-small cell lung cancer (NSCLC) cells are treated with, different doses of 2-Methyl-2-[4-(3-methyl-2-oxo-8-quinolln-3-yl-2,3-dihydro-imidazo[4, 5-c]quinolin-1-yl)-phenyl]-propionitrile monotosylate salt (also known as COMPOUND A) or 5,-(2,6-di-rnorpholin-4-yl-pyrimidin-4-yl)-4-trifluoromethyl-pyridin-2-ylamine hydrochloride salt (also known as COMPOUND C), a single dose of metformin or both agents in combination, The H460 human NSCLC cells (NCl-H460. ATCC-HTB-177, available from American Type Culture Collection, FRockville, Md. US) are derived from the pleural fluid of a patient with large cell cancer of the lung.
H460 tumor cells are grown in RPMI 1640 medium containing 100 units/mL penicillin G sodium, 100 μg/mL streptomycin sulfate, and 25 μg/mL gentamicin. The medium is supplemented with 10% fetal bovine serum and 2 mM glutamine. The cells are cultured in tissue culture flasks in a humidified incubator at 37° C., in an atmosphere of 5% CO2 and 95% air. The cells are harvested for injection into 9-week old female nu/nu (nude) mice (Harlan Laboratories, Indianapolis, Ind.) by detaching the monolayers with 2× trypsin and resuspending at 5×10^7 cells/mL in phosphate-buffered saline.
as §1, §2, §3, §4, §5, §6

Where [4] appears, read: female, nu/nu (nude), mouse, in vivo, po, 41.1 mg/kg.
The mark [5] stands for this setting: female, nu/nu (nude), mouse, in vivo, po, 68.5 mg/kg.
[6] abbreviates: Compound A 41.1 mg/kg p.o., 1x daily.
Setting [7] is: Compound A 68.5 mg/kg p.o., 1x daily.
Setting [8] is: Compound C 32.7 mg/kg p.o., 1x daily.
Setting [9] is: Compound C 54.4 mg/kg p.o., 1x daily until day 10 (stopped due to toxicity).
[10] abbreviates: Paclitaxel 30 mg/kg i.v., 1x on alternate days for 5 doses.
Setting [11] is: Metformin 192.3 mg/kg i.p., 1x daily.

`Cn1c(=O)n(-c2ccc(C(C)(C)C#N)cc2)c2c3cc(-c4cnc5ccccc5c4)ccc3ncc21` [Compound A, 2-Methyl-2-[4-(3-methyl-2-oxo-8-quinolin-3-yl-2,3-dihydro-imidazo[4,5-c]quinolin-1-yl)-phenyl]-propionitrile]: the Dead/Total is 0/8 in series [1] (setting [4]), 0/8 in series [1] (setting [5]), 0/8 in series [2] (setting [4]) and 0/9 in series [2] (setting [5]). Moreover, the “Mean Body Weight Change” value in series [2] (mouse, in vivo, po, 68.5 mg/kg) was −0.8%, Day 4. Also, the “Mean Tumor Vol. Change” value in series [3] (setting [6]) was determined as 809 mm^3; in series [3] (setting [7]), 448 mm^3. Besides, the Regression entry in series [3] (setting [6]) and in series [3] (setting [7]) was “None” in each case. For the same compound, the T/C in series [3] (setting [6]) is listed as 54% (ns,; in series [3] (setting [7]), 30% (ns,.

In the case of `Nc1cc(C(F)(F)F)c(-c2cc(N3CCOCC3)nc(N3CCOCC3)n2)cn1` [Compound C, 5-(2,6-di-morpholin-4-yl-pyrimidin-4-yl)-4-trifluoromethyl-pyridin-2-ylamine], in series [3] (setting [8]), the “Mean Tumor Vol. Change” value was found to be 880 mm^3, the Regression result was “None” and the T/C was 59% (ns,. Also, in series [3] (setting [9]), the “Mean Tumor Vol. Change” value came out at 110 mm^3 and the Regression result is given as “None”. In addition, the T/C in series [3] (Compound C 54.4 mg/kg p.o., 1x daily until day 10 (stopped due to toxicity), not evaluable (ne)) is 7% (ne,.

For `CC(=O)O[C@H]1C(=O)[C@@]2(C)[C@H]([C@H](OC(=O)c3ccccc3)[C@]3(O)C[C@H](OC(=O)[C@H](O)[C@@H](NC(=O)c4ccccc4)c4ccccc4)C(C)=C1C3(C)C)[C@]1(OC(C)=O)CO[C@@H]1C[C@@H]2O` [Paclitaxel, reference compound], the Dead/Total in series [1] (setting [10]) is recorded as 0/8. Also, the Dead/Total in series [2] (setting [10]) is reported as 0/8. Also, in series [3] (setting [10]), the “Mean Tumor Vol. Change” value came to 227 mm^3, the Regression result was “None” and the T/C is listed as 15%.

In the case of `CN(C)C(=N)N=C(N)N` [Metformin, dimethyldiguanide, reference compound], the Dead/Total in series [1] (setting [11]) is given as 0/8. In series [2] (female, nu/nu (nude), mouse, in vivo), the Dead/Total is reported as 1/9. Moreover, in series [3] (setting [11]), the “Mean Tumor Vol. Change” value turned out to be 1516 mm^3, the Regression result is on record as “None” and the T/C is listed as 101% (ns,. In series [3] (metformin in combination with COMPOUND C, overall conclusion), the “enhancement of efficacy or tolerability in combination with COMPOUND C” value is recorded as “does not appear to enhance efficacy or tolerability”. In addition, in series [3] (metformin monotherapy at 192.3 mg/kg), the “impact on tumor growth in the 12-day tumor growth inhibition assay” value was “did not appear to impact tumor growth”.

The values are drawn from patent US20120059005A1, “COMBINATION OF (A) A PHOSPHOINOSITIDE 3-KINASE INHIBITOR AND (B) AN ANTIDIABETIC COMPOUND FOR USE IN THE TREATMENT OF PROLIFERATIVE DISEASES” (NOVARTIS AG, priority 2009, published 2012).
